Consider two molecules from patent US20210100905A1, “APPLICATION OF COMPOUND OR TRADITIONAL CHINESE MEDICINE EXTRACT IN PREPARATION OF NUCLEIC ACID DELIVERY AGENT, AND RELATED PRODUCTS” (INSTITUTE OF BASIC MEDICAL SCIENCES CHINESE ACADEMY OF …, priority 2018, published 2021).

Entries after “also recorded” stand apart in the source; their conditions may differ.

Test [1] deals with A549 cells. The experiment in a line: Digital PCR (ddPCR) detection of the efficiency of nucleic acid delivery by lipid. The conditions noted are these: boiling or reverse evaporation method; samples after 6 hours (No. 39: reverse evaporation, 6 and 12 hours). The test is classed as cell-based, human. The text has this: 2.1 Experimental materials: A549 cells were purchased from the Cell Center of the Institute of Basic Medical Sciences, Chinese Academy of Medical Sciences, TRIzol lysis buffer was purchased from Sigma, High capacity cRNA Reverse Transcription Kit was purchased from ABI, USA, and the digital PCR related reagents were purchased from Bio-Rad USA.
2.2 Experimental method: the total cellular RNA was collected and extracted by TRIzol lysis buffer according to the above methods, and reverse transcribed to cDNA using High capacity cRNA Reverse Transcription Kit, and the cDNA from different groups was subject to digital PCR reaction. Refering to the QX200 Droplet Reader and QuantaSoft Software manual for the protocols, the results were analyzed using QuantaSoft software.
2.2 Experimental method: total RNA was collected and extracted by TRIzol lysis buffer according to the above method, and reverse transcribed to cDNA using High capacity cRNA Reverse Transcription Kit, and the cDNA from different groups was subjected to digital PCR reaction. Refer to the QX200 Droplet Reader and QuantaSoft Software manual for the protocols; the results were analyzed using QuantaSoft software.
2.2 Experimental method: Total RNA was collected and extracted by TRIzol lysis buffer according to the above method, and reverse transcribed to cDNA using TaqMan™ MicroRNA Reverse Transcription KitHigh, and the cDNA from different groups was subjected to digital PCR reaction. Refer to the QX200 Droplet Reader and QuantaSoft Software manual for the protocols; the results were analyzed using QuantaSoft software.
2.2 Experimental method: Total RNA was collected and extracted by TRIzol lysis buffer according to the above method, and reversed to cDNA using High capacity cRNA Reverse Transcription Kit, and the cDNA from different groups was subjected to digital PCR reaction. Refer to the QX200 Droplet Reader and QuantaSoft Software manual for the protocols; the results were analyzed using QuantaSoft software.

Test [2] relates to A549 cell (human lung adenocarcinoma cell). The experiment in a line: In vitro delivery of lipid nucleic acid mixture, RT-qPCR of intracellular small RNA. It is filed as cell-based. The conditions noted are these: single lipid prepared by boiling or reverse evaporation method; RNA 100 nM; FIGS. 76, 91, 96, 99, 104, 106, 107. As to the method: 3.1 NCI-N87 cell (gastric cancer cell), MRC-5 cell (lung fibroblast), A549 cell (lung cancer cell) were cultured to logarithmic growth phase, and then plated to a six-well plate at cell density of 1×10^6/2 mL medium/well; MRC-5 cell was cultured in Eagle's MEM medium (MEM, Gibco); A549 cell was cultured in Ham's F-12 medium (HyClone); NCI-N87 cell was cultured in RPMI-1640 medium (HyClone); followed by incubation overnight at 37° C., and the follow-up experiments were performed after the cells were attached to the walls.
3.3 After co-incubation with the small RNA for 3 hours, the cells were washed 2-3 times with PBS. The cells were harvested with TRIzol lysis buffer, and the total RNA was extracted. The abundance of small RNA that entered cells was detected by RT-qPCR, and the localization of RNA was detected by fluorescence in situ hybridization; protocols of each detection method were as follows:
1) The sRNA was reverse transcribed to cDNA: Reverse Transcription Kit (High-Capacity cDNA Reverse Transcription Kits, Applied Biosystems, cat. No. 4368813) was used to reverse transcribe sRNA into cDNA by stem-loop method, and the reverse transcription system was as follows: RNA template (150 ng/μl) 10 μl, 10×RT buffer, 2.0 μl, 25× dNTP Mix (100 mM) 0.8 μl, U6 RT stem-loop primer 2.0 μl, HJT-sRNA-RT-m7 stem-loop primer 2.0 μl, MultiScribe™ reverse transcriptase 1.0 μl, RNase inhibitor 1.0 μl, nuclease-free H2O 1.2 μl, loaded into a PCR reactor after brief centrifugation, the reaction conditions were as follows: (1) 25° C., 10 min; (2) 37° C., 120 min; (3) 85° C., 5 min; (4) 4° C., termination of the reaction. 20 μl RNase-free ddH2O was added to make up the final volume to 40 μl after the reaction. The stem-loop primer used in the reverse transcription process was synthesized by Beijing Tsingke Biotechnology Co., Ltd.
2) Quantitative PCR amplification reaction: the qPCR reaction system has a total volume of 10 μl, containing: 5 μL 2×SYBR Green Master Mix, 0.5 μl forward primer ([…]), 0.5 μl reverse primer (10 μM), 1 μl cDNA by reverse transcription, 3 RNase-free dH2O. LightCycler 480 fluorescence quantitative PCR instrument was used, and the PCR reaction conditions were: 95° C. for 5 min for pre-denaturation, followed by PCR amplification cycle: (1) 95° C., 10 s; (2) 55° C., 10 s; (3) 72° C. , 20 s; a total of 40 cycles; 40° C. for 10 s in the end to cool down. Both the forward and reverse primers of the amplification reaction were designed and synthesized by Beijing Tsingke Biotechnology Co., Ltd.
3) The relative expression level was calculated by 2-ΔCt method.
100 μl lipid in diethyl ether solution was prepared, and grouped according to the lipid numbers shown in Table 1 (the lipid concentrations are shown in the table below). To the lipid solution was added 20 μl nucleic acid solution (HJT sRNA or siRNA) at the volume ratio of 5:1, and sonicated for after 3 min. The diethyl ether was removed by evaporation at 55° C., and then 100 μl DEPC water was added for hydration to give nucleic acid lipid mixture.
100 μL of the nucleic acid solution (HJT sRNA or siRNA) was added to 2-5 μL of the lipid in chloroform (the concentration was shown in Table 1), mixed, and heated at 80-100° C. for 15-30 min to give nucleic acid lipid mixture.
3.1.1 MRC-5 cell (pulmonary embryonic fibroblast), A549 cell (human lung adenocarcinoma cell), Caco-2 cell (human colon adenocarcinoma cell) (purchased from the Cell Resource Center of the Institute of Basic Medical Sciences, Chinese Academy of Medical Sciences) were cultured to logarithmic growth phase, then plated into 12-well plates at a cell density of 6×10^5/1 mL medium/well; MRC-5 and Caco-2 cells were cultured in Eagle's MEM medium (MEM, Gibco); A549 cells were cultured in Ham's F-12 medium (HyClone); followed by incubation overnight at 37° C., and the follow-up experiments were performed after the cells were attached to the walls. […]
On the technique in general: In qPCR the cycle at which signal appears reflects the starting amount.

Test [3] in a line: In vivo delivery of single-stranded sRNA by single lipid, gavage (Example 11). The conditions noted are these: FIGS. 108, 112-115; oral (gavage), 10 μL lipid, sRNA 1 nmol each, heating method, 12 hours; vs POPC and Lipofectamine RNAiMAX. Details: species or system C57 mice. The procedure:
1. Experimental animals: C57 mice, male, approximately 6 weeks old.
2. Manufacture of lipid mixture: the prepration was conducted on the basis of a dose of 10 μ1 lipid-1 nmol sRNA per mouse as follows: dissolved 1 nmol of each sRNA in 500 μl DEPC water, added 10 μl of the corresponding lipid, pipette to mix thoroughly, and then naturally cooled down after water bath for 15 min at 90° C., and administered via gavage.
1) Tissue sampling and extraction of RNA: 6 hours after gavage in mice, took 500 μl of blood from the eyeball, added 1.5 ml Trizol Reagent LS to thoroughly mix and lyse, added 3 ml Trizol Reagent (purchased from Invitrogen) to the tissue samples and homogenized until complete lysis. Tissues sampled: live/stomach/small intestine.
2) Reverse transcription of sRNA to cDNA: Reverse Transcription Kit (High-Capacity cDNA Reverse Transcription Kits, Applied Biosystems, cat. no. 4368813), was used to reverse transcribe the total RNA to cDNA, and the reverse system was as follows: template RNA (150 ng/μL) 10 μL, 10× RT buffer, 2.0 μL, 25× dNTP Mix (100 mM) 0.8 μL, random primers 2.0 μL, the Multi Scribe™ reverse Transcriptase 1.0 μL, RNase inhibitor 1.0 μL, nuclease-free H2O 3.2 μL. After a brief centrifugation, the reaction was loaded in a PCR reactor. The reaction conditions were as follows: (1) 25° C., 10 min; (2) 37° C., 120 min; (3) 85° C., 5 min; (4) 4° C., termination of the reaction. After the reaction, 20 μL RNase-free ddH2O was added to make up the final volume to 40 μL.
LightCycler 480 fluorescence quantitative PCR instrumentwas used, and the PCR reaction conditions were: 95° C. , 5 min for pre-denaturation, followed by the PCR amplification cycle: (1) 95° C., 10 s; (2) 55° C., 10 s; (3) 72° C., 20 s; a total of 40 cycles; 40° C. for 10 s in the end to cool down. The forward primer and reverse primer of the amplification reaction were designed and synthesized by Beijing Qing Ke New Industrial Biotechnology Co., Ltd. (U6 F primer: GCGCGTCGTGAAGCGTTC (SEQ ID NO: 23), U6 R primer: GTGCAGGGTCCGAGGT (SEQ ID NO: 24)).
3) The relative expression amount was calculated by the 2-ΔCt method.
5) Treatment group of single lipid and nucleic acid mixture: a mixture of 10 μL of single lipid (No. 41) with single-stranded sRNA mixure solution (PGY-sRNA-23, PGY-sRNA-26 and PGY-sRNA-32, 1 nmol each) was treated by heating method and then given to mice via intragastric administration.
2. 12 hours after intragastric administration, the blood was taken from the eyeball, and various tissues (liver/stomach/small intestine) was sampled. TRIzol was used for full lysis and the RNA was extracted to detect the amount of entry.

Turning to `CCCCCC/C=C\CCCCCCCCCC(=O)O[C@H](COC(=O)CCCCCCC/C=C\CCCCCC)COP(=O)(O)OCCN` [No. 39, (2-aminoethoxy) [(2R)-3-[(9Z)-hexadec-9-enoyloxy]-2-[(11Z)-octadec-11-enoyloxy]propoxy] phosphinic acid], the “delivery of HJT-sRNA-m7 dsRNA into A549 cells (ddPCR)” value in test [1] is on record as “could effectively deliver HJT-sRNA-m7 dsRNA into A549 cells”. For the same molecule, the “delivery of HJT-sRNA-m7 double-stranded RNA into A549 cells (real-time PCR)” value in test [2] is listed as “delivered double-stranded RNA into A549 cells”.

For `CCCCCCCCCCCCCCCC(=O)OCC(COP(=O)(O)OCCN)OC(=O)CCCCCCCCCCCCCCC` (stereo not drawn) [No. 71, 1,2-Dipalmitoyl-sn-Glycero-3-Phosphatidyl-ethanolamine], the “delivery of sRNA single-stranded nucleic acid into mouse blood” value in test [3] is “could effectively deliver sRNA single-stranded nucleic acid into mouse blood via oral administration; also recorded: the delivery effect was better than POPC and Lipofectamine RNAiMAX”.
